Reference: patent US20120028921A1, “METHODS AND COMPOSITIONS USING OXIDIZED PHOSPHOLIPIDS” (The Johns Hopkins University, priority 2004, published 2012)
Entries after “also recorded” stand apart in the source; their conditions may differ. One block for each molecule: values may come before it.

Key:
[1] = tested on: human pulmonary endothelial cells (HPAEC); test: Transendothelial electrical resistance (TER), ECIS system; type: cell-based; details: for co-elution with TER-increasing activity in HPLC-MS of fraction 2: reversed phase HPLC fractions tested on TER; for effect of pretreatment on OxPAPC-induced TER increase: BHT 5 μM 10 min preincubated with OxPAPC, toxin B 100 ng/ml, Y27632 5 μM, 1 hr; for effect on transendothelial electrical resistance (TER): agent alone, phospholipids up to 20 μg/ml; for effect of synthetic fragmented phospholipids on TER: prepared by chemical synthesis
Description: Human pulmonary endothelial cells (HPAEC) were cultured and transfected with cDNAs as described previously (Birukov et al., 2002). Lipid oxidation and analysis of oxidation products by positive ion electrospray mass spectrometry (ESI-MS) was performed as described previously (Watson et al., 1997, Leitinger et al. 1999 and, Bochov et al. 2002). Measurements of transendothelial electrical resistance were performed using electrical cell substrate impedance-sensing (ECIS) system as described elsewhere (Garcia et al., 2001 and Birukova et al., 2004). Transient transfections and siRNA-based protein depletion of small GTPases were performed as described elsewhere (Birukov et al. 2002, Birukova et al., 2004 and Birukova et al., 2004a). Rac, Cdc42 and Rho activation assays were performed using assay kits from Upstate Biotechnology (Lake Placid, N.Y.) (Garcia et al., 2001 and Birukova et al., 2004). Subcellular protein fractionation, western blot analyses and densitometric analyses were performed from at least 3 experiments as described (Birukova et al., 2004). Immunofluorescent staining of HPAEC was performed as previously described (Birukov et al., 2002, Birukova et al., 2004). ANOVAs and a post hoc Student-Newman-Keuls test were used to compare the means of two or more different treatment groups. Results were expressed as the mean±SE. Differences between two groups were considered statistically significant with a value of P<0.05.

Erk-1,2 = Erk-1,2 MAP kinase cascade activation, phospho-specific immunoblotting; type: cell-based, human; details: for effect on OxPAPC-induced Erk-1,2 cascade activation/phosphorylation: UO-126 5 μM, genistein 100 μM, PKC peptide inhibitor 20 μM, BHT preincubated with OxPAPC
Description: (§1) Western immunoblotting. Protein extracts were separated by SDS-PAGE, transferred to polyvinylidene difluoride (PVDF) membranes (30 V for 18 h or 90 V for 2 h), and the membranes were incubated with specific antibodies of interest. Equal protein loadings were verified by reprobing membranes with anti-Erk, anti-Fax, or anti-paxillin antibodies. Immunoreactive proteins were detected with the enhanced chemiluminescent detection system (ECL) according to the manufacturer's directions (New England BioLabs, Beverly, Mass.). The relative intensities of the protein bands were quantified by scanning densitometry using Image Quant 5.2 (Molecular Dynamics, Piscataway, N.J.) software.
(§2) Activation of MAP kinase pathways and characterization of tyrosine phosphorylation. Activation of MAP kinase cascade was by monitored by western immunoblotting techniques using phosphospecific antibodies, which are described in Materials section and detect activated form of protein kinases of the MAP kinase cascade. Analysis of the total protein tyrosine phosphorylation was performed by immunoblotting with phosphotyrosine antibody.

[2] = tested on: protein tyrosine phosphorylation; test: Total protein tyrosine phosphorylation, phosphotyrosine immunoblot; type: cell-based, human; details: for effect on OxPAPC-induced protein tyrosine phosphorylation: genistein 100 μM, BHT preincubated with OxPAPC
Description: as §1, §2

PKC = PKC activation: phospho-PKC substrate immunoblot and in vitro kinase assay of lysates; type: cell-based, human
Description: (§3) Analysis of PKC and PKA activities. After stimulation with OxPAPC (20 μg/ml, 15 min), HPAEC were lysed, cell lysates were clarified by centrifugation (14000 g, 5 min, +4 C.°), and PKA and PKC activities were measured using in vitro kinase assay kits obtained from Promega Corp. (Madison, Wis.) according to manufacturer protocol. Additionally, OxPAPC-induced PKC and PKA activation in HPAEC cultures was determined by immunoblotting of whole cell lysates with phospho-PKC substrate- and phospho-PKA substrate-specific antibodies that recognize PKA- or PKC-phosphorylated sites in the EC endogenous proteins.

JNK = JNK MAP kinase phosphorylation, immunoblotting; type: cell-based, human
Description: as §1, §2

paxillin = test: Paxillin Tyr118 phosphorylation, immunoblot; type: cell-based, human; details: PP-2 5 μM pretreatment
Description: as §1

FAK = FAK Tyr576 phosphorylation, immunoblot; type: cell-based, human; details: PP-2 5 μM pretreatment
Description: as §1

PKA = PKA activation: phospho-PKA substrate immunoblot and in vitro kinase assay of lysates; type: cell-based, human; details: phospho-PKA substrate immunoblot
Description: as §3

p38 = p38 MAP kinase phosphorylation, immunoblotting; type: cell-based, human; details: 20 μg/ml
Description: as §1, §2

[3] = tested on: human pulmonary endothelial cells (HPAEC); details: literature (Goggel et al. 2004); cited from earlier work
[4] = HPAEC monolayers, thrombin 50 nM

Molecule: CCCCC/C=C\CC1C=CC(=O)/C1=C/C1OC1CCCC(=O)O[C@H](COC(=O)CCCCCCCCCCCCCCC)COP(=O)([O-])OCC[N+](C)(C)C (stereo partly drawn) [PECPC, 1-palmitoyl-2-(epoxycyclopentenone)-sn-glycero-3-phosphorylcholine]
co-elution with TER-increasing activity in HPLC-MS of fraction 2 [1]: co-eluted with the fraction exhibiting major barrier-protective activity; also recorded: co-eluted with TER increasing activity

effect on OxPAPC-induced Erk-1,2 cascade activation/phosphorylation (Erk-1,2): attenuated
Molecule: O=c1c(-c2ccc(O)cc2)coc2cc(O)cc(O)c12 [genistein]
effect on OxPAPC-induced protein tyrosine phosphorylation [2]: abolished

Molecule: C[C@@H](N)[C@H]1CC[C@H](C(=O)Nc2ccncc2)CC1 [Y27632]
effect of pretreatment on OxPAPC-induced TER increase [1]: not

Molecule: CCCCCCCCCCCCCC(=O)OC[C@H](COP(=O)([O-])OCC[N+](C)(C)C)OC(=O)CCCCCCCCCCCCC [DMPC, dimyristoyl phosphatidyl choline]
effect on transendothelial electrical resistance (TER) [1, 4]: did not exhibit significant effects

Molecule: CN(C)CCCn1cc(C2=C(c3c[nH]c4ccccc34)C(=O)NC2=O)c2ccccc21 [bisindolmaleimide I]
effect on OxPAPC-induced PKC activity (PKC; in vitro kinase assay, preincubation 1 hour): attenuated OxPAPC-induced PKC activation to a lesser extent

Molecule: CCCCC/C=C\CC1/C(=C\C2OC2CCCC(=O)O[C@H](COC(=O)CCCCCCCCCCCCCCC)COP(=O)([O-])OCC[N+](C)(C)C)C(=O)CC1O (stereo partly drawn) [PEIPC, 1-palmitoyl-2-(epoxyisoprostane E2)-sn-glycero-3-phosphocholine]
co-elution with TER-increasing activity in HPLC-MS of fraction 2 [1]: co-eluted with TER increasing activity

Molecule: CCCCCCCCCCCCC/C=C/[C@@H](O)[C@@H](N)COP(=O)(O)O [S1P, sphingosine 1-phosphate]
concentration giving maximal barrier protective effect ([1]; HPAEC monolayers): 1 µM | effect on transendothelial electrical resistance (TER) [1, 4]: rapid concentration-dependent TER increase

Molecule: CCCCC/C=C\C/C=C\CCCCCCCC(=O)OC(COC(=O)CCCCCCCCCCCCCCC)COP(=O)([O-])OCC[N+](C)(C)C (stereo not drawn) [PLPC, palmitoyl-linoleate phosphatidyl choline]
effect on transendothelial electrical resistance (TER) [1, 4]: did not exhibit significant effects

Molecule: Cc1cc(C(C)(C)C)c(O)c(C(C)(C)C)c1 [BHT, butylated hydroxytoluene]
effect on OxPAPC-induced Erk-1,2 cascade activation/phosphorylation (Erk-1,2): same levels of Erk-1,2 activation | effect on OxPAPC-induced protein tyrosine phosphorylation [2]: did not affect | effect of preincubation on OxPAPC-induced JNK activation (JNK; OxPAPC preincubated with BHT): same levels of JNK activation | effect of pretreatment on OxPAPC-induced TER increase [1]: did not affect

Molecule: CC(C)(C)n1nc(-c2ccc(Cl)cc2)c2c(N)ncnc21 [PP-2]
effect on OxPAPC-induced paxillin phosphorylation (paxillin): attenuated | effect on OxPAPC-induced FAK phosphorylation (FAK): attenuated

Molecule: CCCCC/C=C\C/C=C\C/C=C\C/C=C\CCCC(=O)O[C@H](COC(=O)CCCCCCCCCCCCCCC)COP(=O)([O-])OCC[N+](C)(C)C [PAPC, 1-palmitoyl-2-arachidomoyl-sn-glycero-3-phosphorylcholine]
Erk-1,2 activation (Erk-1,2; 20 μg/ml): had no effect | PKA-mediated phosphorylation of endogenous substrates / PKA activation (PKA): did not induce PKA activation | phosphorylation / activation of p38 (p38): without effect | protein tyrosine phosphorylation ([2]; 20 μg/ml): without effect | phosphorylation / activation of JNK (JNK; 20 μg/ml): without effect | effect on transendothelial electrical resistance (TER) [1, 4]: did not exhibit significant effects | PKC-mediated phosphorylation of endogenous substrates (PKC; phospho-PKC substrate immunoblot): did not significantly increase

Molecule: lysoPC
effect of synthetic fragmented phospholipids on TER [1]: significantly and concentration-dependently decreased TER

Molecule: CCCCCCCCCCCCCCCC(=O)OC[C@H](COP(=O)([O-])OCC[N+](C)(C)C)OC(=O)CCCC(=O)O [PGPC]
effect of synthetic fragmented phospholipids on TER [1]: significantly and concentration-dependently decreased TER

Molecule: CCCCCCCCCCCCCCCC(=O)OC[C@H](COP(=O)([O-])OCC[N+](C)(C)C)OC(=O)CCCC=O [POVPC]
effect of synthetic fragmented phospholipids on TER [1]: significantly and concentration-dependently decreased TER

Molecule: thrombin
effect on transendothelial electrical resistance (TER) [1, 4]: abrupt decrease in TER | TER recovery time after maximal TER decline ([1]; thrombin 50 nM, with or without OxPAPC 20 μg/ml, five experiments): 115 min

Molecule: platelet activating factor [PAF]
barrier effect compared with OxPAPC [3]: does not mimic barrier-protective OxPAPC effects

effect on OxPAPC-induced Erk-1,2 cascade activation/phosphorylation (Erk-1,2): completely abolished
Molecule: N#CC(=C(/N)Sc1ccccc1N)/C(C#N)=C(/N)Sc1ccccc1N [UO-126]
